The MIC is the least concentration at which growth counts as inhibited. A low value points to greater potency.

Common to all, as to type: functional
Experiment [1] deals with Lipid bilayer. The experiment is described as follows: Induction of membrane lysis in Escherichia coli W3110 lipid vesicles assessed as calcein release at 375 uM by spectrofluorometric analysis.
In experiment [2] the test system is Escherichia coli. The experiment is described as follows: Antibacterial activity against Escherichia coli W3110.
Experiment [3] deals with Lipid bilayer. The experiment is described as follows: Induction of membrane lysis in Escherichia coli W3110 lipid vesicles assessed as calcein release at 1500 uM by spectrofluorometric analysis.
The subject of experiment [4] is Lipid bilayer. The experiment is described as follows: Induction of membrane lysis in Escherichia coli W3110 lipid vesicles assessed as calcein release at 750 uM by spectrofluorometric analysis.
The test system of experiment [5] is Escherichia coli. The experiment is described as follows: Membrane permeabilisation in Escherichia coli W3110 assessed as NPN uptake at 2mM incubated for 1 hr by spectrofluorometric analysis.
Experiment [6] deals with Lipid bilayer. The experiment is described as follows: Induction of membrane lysis in Staphylococcus aureus UL12 lipid vesicles assessed as calcein release at 375 uM by spectrofluorometric analysis.
The subject of experiment [7] is Lipid bilayer. The experiment is described as follows: Induction of membrane lysis in Staphylococcus aureus UL12 lipid vesicles assessed as calcein release at 3000 uM by spectrofluorometric analysis.
In experiment [8] the test system is Staphylococcus aureus. The experiment is described as follows: Membrane permeabilisation in Staphylococcus aureus UL12 assessed as NPN uptake at 2mM incubated overnight by spectrofluorometric analysis.
Experiment [9] relates to Lipid bilayer. The experiment is described as follows: Induction of membrane lysis in Staphylococcus aureus UL12 lipid vesicles assessed as calcein release at 93.73 uM by spectrofluorometric analysis.
The test system of experiment [10] is Lipid bilayer. The experiment is described as follows: Induction of membrane lysis in Staphylococcus aureus UL12 lipid vesicles assessed as calcein release at 187.5 uM by spectrofluorometric analysis.
Experiment [11] has as its system Lipid bilayer. The experiment is described as follows: Induction of membrane lysis in Staphylococcus aureus UL12 lipid vesicles assessed as calcein release at 750 uM by spectrofluorometric analysis.
For experiment [12], the system named is Staphylococcus aureus. The experiment is described as follows: Antibacterial activity against Staphylococcus aureus UL12.
Experiment [13] deals with Lipid bilayer. The experiment is described as follows: Induction of membrane lysis in Escherichia coli W3110 lipid vesicles assessed as calcein release at 93.73 uM by spectrofluorometric analysis.
For experiment [14], the system named is Lipid bilayer. The experiment is described as follows: Induction of membrane lysis in Staphylococcus aureus UL12 lipid vesicles assessed as calcein release at 1500 uM by spectrofluorometric analysis.
For experiment [15], the system named is Staphylococcus aureus. The experiment is described as follows: Membrane permeabilisation in Staphylococcus aureus UL12 assessed as NPN uptake at 2mM incubated for 1 hr by spectrofluorometric analysis.
Experiment [16] has as its system Lipid bilayer. The experiment is described as follows: Induction of membrane lysis in Escherichia coli W3110 lipid vesicles assessed as calcein release at 3000 uM by spectrofluorometric analysis.
The test system of experiment [17] is Lipid bilayer. The experiment is described as follows: Induction of membrane lysis in Escherichia coli W3110 lipid vesicles assessed as calcein release at 187.5 uM by spectrofluorometric analysis.
Experiment [18] has as its system Escherichia coli. The experiment is described as follows: Membrane permeabilisation in Escherichia coli W3110 assessed as NPN uptake at 2mM incubated overnight by spectrofluorometric analysis.

In brackets after ≈: the same amount, converted by molar mass.

Take `O=C(Nc1ccccc1)Nc1ccccc1` [DIPHENYLUREA]: the Activity with Lipid bilayer [1] was 6.47%; in the experiment on Lipid bilayer [3], 12%; in the experiment with Lipid bilayer [4], 8.53%; in the experiment on Escherichia coli [5], 45.29%; with Lipid bilayer [6], 13.8%; in the experiment on Lipid bilayer [7], 25.5%. The Activity with Staphylococcus aureus [8] is 49.4%; with Lipid bilayer [9] it was 7.18%; in the experiment with Lipid bilayer [10], 9.2%; in the experiment with Lipid bilayer [11], 15.3%; with Lipid bilayer [13], 3.17%; with Lipid bilayer [14], 18.3%. Besides, the Activity was 46.01% in the experiment on Staphylococcus aureus [15], 14.8% with Lipid bilayer [16], 6.27% in the experiment with Lipid bilayer [17] and 30.02% in the experiment with Escherichia coli [18]. The MIC in the experiment on Escherichia coli [2] is greater than 3000 µM; against Staphylococcus aureus [12], 2000 µM (≈ 425 µg/mL).
Turning to `CN(C(=O)N(C)c1cccc(N)c1)c1ccccc1`, the Activity with Lipid bilayer [1] is 6.75%; in the experiment with Lipid bilayer [3] it was 8.03%; in the experiment with Lipid bilayer [4], 7.44%; in the experiment on Escherichia coli [5], 40.18%; in the experiment with Lipid bilayer [6] it was 12%; in the experiment on Lipid bilayer [7] it was 27%. Moreover, the Activity with Staphylococcus aureus [8] was 53.57%; with Lipid bilayer [9], 4.45%; in the experiment on Lipid bilayer [10], 7.13%; in the experiment on Lipid bilayer [11] it was 15.3%; in the experiment on Lipid bilayer [13], 2.3%; in the experiment with Lipid bilayer [14], 21.2%. Moreover, the Activity is 46.26% in the experiment on Staphylococcus aureus [15], 9.65% with Lipid bilayer [16], 5.72% with Lipid bilayer [17] and 48.79% in the experiment on Escherichia coli [18]. Moreover, the MIC in the experiment on Escherichia coli [2] is greater than 3000 µM; against Staphylococcus aureus [12], 2000 µM (≈ 511 µg/mL).
In the case of `Nc1cccc(NC(=O)Nc2ccccc2)c1`, the Activity was 1.24% in the experiment with Lipid bilayer [1]; 1.78% with Lipid bilayer [3]; 1.73% in the experiment with Lipid bilayer [4]; 33.93% in the experiment with Escherichia coli [5]; 10.1% in the experiment with Lipid bilayer [6]; 15.5% in the experiment on Lipid bilayer [7]. Besides, the Activity in the experiment with Staphylococcus aureus [8] was 19.29%; in the experiment with Lipid bilayer [9] it was 4.58%; in the experiment with Lipid bilayer [10] it was 8.34%; with Lipid bilayer [11] it was 12.7%; in the experiment with Lipid bilayer [13], 0.15%; in the experiment with Lipid bilayer [14], 13.8%. In addition, the Activity in the experiment with Staphylococcus aureus [15] is 38.91%; in the experiment on Lipid bilayer [16] it was 2.17%; in the experiment with Lipid bilayer [17] it was 0.95%; in the experiment on Escherichia coli [18], 16.34%. In addition, the minimal inhibitory concentration (MIC) in the experiment with Escherichia coli [2] was greater than 3000 µM; in the experiment with Staphylococcus aureus [12], 2500 µM (≈ 568 µg/mL).
Consider `CN(C(=O)N(C)c1cccc(NC(=O)c2ccncc2)c1)c1ccccc1`, for which the Activity is 26.3% in the experiment on Lipid bilayer [1]; 33.6% in the experiment on Lipid bilayer [3]; 29.1% in the experiment on Lipid bilayer [4]; 49.57% with Escherichia coli [5]; 49.6% in the experiment on Lipid bilayer [6]; 54.6% in the experiment on Lipid bilayer [7]. The Activity is 57.33% in the experiment on Staphylococcus aureus [8]; 40% in the experiment with Lipid bilayer [9]; 48.2% with Lipid bilayer [10]; 51.5% with Lipid bilayer [11]; 24.1% in the experiment on Lipid bilayer [13]; 53.1% with Lipid bilayer [14]. For the same compound, the Activity in the experiment with Staphylococcus aureus [15] was 50.59%; with Lipid bilayer [16] it was 35.3%; in the experiment on Lipid bilayer [17] it was 24.8%; in the experiment on Escherichia coli [18], 52.34%. Also, the MIC in the experiment on Escherichia coli [2] stood at 2000 µM (≈ 721 µg/mL); with Staphylococcus aureus [12], 1000 µM (≈ 360 µg/mL).
As for `CN(C(=O)N(C)c1ccccc1)c1ccccc1`, the Activity with Lipid bilayer [1] is 4.25%; in the experiment with Lipid bilayer [3], 7.28%; in the experiment with Lipid bilayer [4] it was 6.44%; in the experiment with Escherichia coli [5], 40.75%; with Lipid bilayer [6] it was 12.8%; in the experiment on Lipid bilayer [7], 24.1%. Also, the Activity with Staphylococcus aureus [8] was 44.34%; in the experiment with Lipid bilayer [9], 2.59%; in the experiment on Lipid bilayer [10] it was 5.71%; in the experiment on Lipid bilayer [11], 14.2%; in the experiment on Lipid bilayer [13] it was 0.82%; in the experiment with Lipid bilayer [14], 15.1%. The Activity with Staphylococcus aureus [15] was 43.82%; in the experiment with Lipid bilayer [16] it was 9.02%; in the experiment with Lipid bilayer [17], 2.05%; in the experiment with Escherichia coli [18], 38.67%. The MIC in the experiment on Escherichia coli [2] was greater than 3000 µM; with Staphylococcus aureus [12], 2500 µM (≈ 601 µg/mL).
On to `CN(C(=O)N(C)c1cccc(NC(=O)CN)c1)c1ccccc1`, for which the Activity with Lipid bilayer [1] is 29.3%; in the experiment with Lipid bilayer [3] it was 31%; in the experiment with Lipid bilayer [4], 30%; in the experiment on Escherichia coli [5], 42.47%; with Lipid bilayer [6], 11.8%; in the experiment with Lipid bilayer [7], 17.8%. Further, the Activity with Staphylococcus aureus [8] was 36.81%; with Lipid bilayer [9], 4.45%; in the experiment on Lipid bilayer [10] it was 10%; with Lipid bilayer [11], 13.2%; in the experiment on Lipid bilayer [13] it was 8.45%; in the experiment with Lipid bilayer [14] it was 15.3%. Further, the Activity with Staphylococcus aureus [15] is 40.6%; in the experiment on Lipid bilayer [16], 35.5%; with Lipid bilayer [17], 27.2%; with Escherichia coli [18] it was 52.87%. In addition, the results for the MIC in the experiment on Escherichia coli [2] and in the experiment on Staphylococcus aureus [12] were 2000 µM (≈ 625 µg/mL) and 2500 µM (≈ 781 µg/mL), respectively.
`NCC(=O)Nc1cccc(NC(=O)Nc2ccccc2)c1`: the Activity with Lipid bilayer [1] is 9.17%; in the experiment on Lipid bilayer [3], 23.5%; with Lipid bilayer [4], 16.6%; with Escherichia coli [5] it was 47.09%; in the experiment on Lipid bilayer [6] it was 17.8%; in the experiment with Lipid bilayer [7] it was 44.1%. Also, the Activity with Staphylococcus aureus [8] is 69.56%; in the experiment on Lipid bilayer [9], 6.91%; in the experiment with Lipid bilayer [10] it was 11.2%; with Lipid bilayer [11], 27.2%; with Lipid bilayer [13], 1.1%; in the experiment on Lipid bilayer [14], 31.2%. In addition, the Activity is 69.56% in the experiment with Staphylococcus aureus [15], 29.2% with Lipid bilayer [16], 6.06% in the experiment with Lipid bilayer [17] and 50.93% with Escherichia coli [18]. Besides, the values for the MIC against Escherichia coli [2] and in the experiment with Staphylococcus aureus [12] were 2000 µM (≈ 569 µg/mL) and 1500 µM (≈ 426 µg/mL), respectively.

Values taken from ChEMBL document CHEMBL3826887, “Functional foldamers that target bacterial membranes: The effect of charge, amphiphilicity and conformation” (2016).
